# Data from patent publication US20250002463A1, “NEW SALT FORMS OF AMILORIDE AND ITS DERIVATIVES FOR PHARMACEUTICAL USE” (PSOMRI Holding AB, priority 2021, published 2025).
# Several values for one entry are separate records, joined by “and”; a condition that tells them apart may be missing. Equal values may be shown once.
# Key:
# [1] = Intrinsic dissolution rate (rotating disc, μDiss) in water and FaSSIF; type: physicochemical; conditions: for IDR (mg/cm^2/min) Individual: single disc
# Protocol: Rotating disc intrinsic dissolution determinations were performed with a μDiss apparatus (Pion, USA) equipped with 6 independent glass fiber probes each connected to a diode area. Before the start of the experiment the probes were calibrated using the spectrum of a Mercury 362 nm pen-ray lamp. Discs were prepared in a passivated aluminum dye with a mini-IDR press (Heath Scientific, UK).
# Six dilutions of benzamil lactate salt were prepared in the dissolution media in the range from 0 to 0.5 mg/mL, and the solutions were stirred with a cross-shaped magnetic stirrer. These dilutions were used for the calibration curve which is used for the calculation of the amount of benzamil in solution. Moreover, the solutions were used to select the wavelength at which the samples were to be measured and to select the proper path length.
# The dyes were placed in their Teflon holder magnet stirrer and placed into 20 mL glass vials. Before to the sample measurement, a blank of each media was taken in the respective channel. The experiment started by the gentle addition of the pre-warmed dissolution media. Vials were incubated at 37° C. under continuous stirring at 100 rpm for a maximum of 4 h. UV absorption was measured with the in-line probes at regular intervals. Upon completion of the experiment the pH of the solution was determined. Concentrations of API in solution were calculated with use of the calibration curve and plotted against time. Dissolution rates were calculated over the linear parts of the curves. All dissolution rate experiments were done in triplicate except for TFA1 which were done in duplicate due to the lack of material.
# [2] = Polymorphism: solid forms found in salt screen by HT-XRPD; type: physicochemical; conditions: Example 1 salt screen in MeOH, DME, THF
# Protocol: The precipitated solids were analyzed by high throughput X-ray powder diffractometry (HT XRPD). Liquid phases (both solutions and mother liquors) were evaporated at ambient conditions and the residual solids were analyzed by HT XRPD.
# The salt screen experiments were carried out in methanol (MeOH), 1,2-dimethoxyethane (DME) and tetrahydrofuran (THF).
# [3] = Aqueous solubility of salts, Example 1 (aliquot addition; HPLC after 24 h at RT; pH of solutions/mother liquors); conditions: Example 1; RT; aliquot addition (ranges) or HPLC after 24 h, not in Table 3
# Protocol: The aqueous solubility of the salts was estimated qualitatively by the solvent aliquot addition method. Aliquots of water up to 500-600 μL were added to approximately 5 mg of salt. The solubility of the free base was also estimated.
# The suspensions were let equilibrating at room temperature for 24 h. Afterwards, solids were separated from the liquid phases. The liquid phases were filtered and analyzed by HPLC to determine the solubility. The pH of solutions/mother liquors was also measured.
# Suspensions of the two salts were prepared in water with a concentration of 9-10 mg/mL. The mixtures were let equilibrating at RT for 24 h. Afterwards, solids were separated from the liquid phases. The liquid phases were filtered and analyzed by HPLC to determine the solubility. The pH of mother liquors was also measured.
# [4] = Hygroscopicity by Dynamic Vapor Sorption (DVS); type: physicochemical; conditions: based on water vapour uptake at 25° C./80% RH
# Protocol: The hygroscopic behaviour of the salts was evaluated through Dynamic Vapor Sorption (DVS) measurements with an RH profile 40-95-0-40% at 25° C. and a dm/dt of 0.002. The classification of the hygroscopic behaviour is based on the water vapour uptake at 25° C./80% RH in first adsorption cycle of sorption isotherm.
# [5] = Physical stability under Accelerated Aging Conditions (AAC, 40° C./75% RH, 2 days), HT-XRPD
# [6] = Polymorphic landscape by thermocycling of amorphous salt in 15 solvents; type: physicochemical; conditions: for polymorphs found: Example 3, thermocycling from amorphous salt, 15 solvents; for HT-XRPD Vac.: vacuum-dried solid; for HT-XRPD Vac. (AAC): vacuum-dried solid after AAC 48 h; for HT-XRPD Evap.: evaporated liquid; for HT-XRPD Evap. (AAC): evaporated liquid after AAC 48 h
# [7] = Physio-chemical stability study, open container 25° C./60% RH and 40° C./75% RH (UPLC, TGMS, HT-XRPD); type: physicochemical; conditions: for UPLC 1 week / UPLC 3 weeks / UPLC 3 days: chemical purity
# Protocol: Open container at 25° C. and 60% RH • 2. Open container at 40° C. and 75% RH
# [8] = Kinetic and thermodynamic solubility in water at 37° C. (1 h and 18 h, UPLC)
# [9] = thermocycling in Acetone/water (95/5% v/v)
# [10] = thermocycling in EtOH/water (95/5% v/v)
# [11] = thermocycling in IPA/water (95/5% v/v)
# [12] = open container 25° C. and 60% RH
# [13] = open container 40° C. and 75% RH
# [14] = water, 37° C., 30 mg/ml suspension
structure (smiles),measurement,setting,value
CC(O)C(=O)O.NC(=NCc1ccccc1)NC(=O)c1nc(Cl)c(N)nc1N [LAC1],dissolution rate compared with TFA2 and TFA1,[1],significantly faster
same,IDR (mg/cm^2/min) Average,"[1]; FaSSIF, 37° C., 100 rpm",0.39 ± 0.11 mg/cm^2/min
same,IDR (mg/cm^2/min) Individual,"[1]; FaSSIF, 37° C., 100 rpm",0.285 mg/cm^2/min and 0.510 mg/cm^2/min and 0.389 mg/cm^2/min
same,IDR (mg/cm^2/min) Average,"[1]; Water, 37° C., 100 rpm",1.87 ± 0.06 mg/cm^2/min
same,IDR (mg/cm^2/min) Individual,"[1]; Water, 37° C., 100 rpm",1.870 mg/cm^2/min and 1.811 mg/cm^2/min and 1.933 mg/cm^2/min
same,time until the whole tablet has been dissolved,"[1]; water, 37° C.",about 50 min
same,Intrinsic Dissolution Rate (IDR),"[1]; water, 37° C., 100 rpm, linear part (LAC1 1 to 36 min; TFA 10-100 min)",1.87±0.06 mg/cm^2/min
same,Polymorphism,[2],No
same,Polymorphism,[2]; listed as lactate salt,Only one polymorph
same,Water solubility,[3],26 to 51 mg/mL
same,classification of hygroscopic behaviour,[4],slightly hygroscopic
same,Physically stable?,"[5]; AAC, 2 days at 40° C. and 75% RH, solids from thermocycling",Yes
same,Physically stable after AAC,"[5]; Example 1, 40° C./75% RH for 2 days",physically stable and Yes
same,physical stability upon exposure to AAC,"[5]; Example 3 thermocycling solids, 2 days at 40° C. and 75% RH",physically stable
same,polymorphs found,[6]; listed as benzamil lactate salt,not to be polymorphic
same,polymorphs found,[6]; listed as lactate salt,Only one polymorph
same,HT-XRPD Vac.,"[6]; thermocycling in 1,4-Dioxane",LAC1
same,HT-XRPD Vac. (AAC),"[6]; thermocycling in 1,4-Dioxane",LAC1
same,HT-XRPD Vac.,[6]; thermocycling in ACN,LAC1
same,HT-XRPD Vac. (AAC),[6]; thermocycling in ACN,LAC1
same,HT-XRPD Vac.,[6]; thermocycling in Acetone,LAC1
same,HT-XRPD Vac. (AAC),[6]; thermocycling in Acetone,LAC1
same,HT-XRPD Vac.,[6]; [9],LAC1
same,HT-XRPD Vac. (AAC),[6]; [9],LAC1
same,HT-XRPD Vac.,[6]; thermocycling in DME,LAC1
same,HT-XRPD Vac. (AAC),[6]; thermocycling in DME,LAC1
same,HT-XRPD Vac.,[6]; thermocycling in EtOAc,LAC1
same,HT-XRPD Vac. (AAC),[6]; thermocycling in EtOAc,LAC1
same,HT-XRPD Vac.,[6]; thermocycling in EtOH,LAC1
same,HT-XRPD Vac. (AAC),[6]; thermocycling in EtOH,LAC1
same,HT-XRPD Evap.,[6]; [10],LAC1
same,HT-XRPD Evap. (AAC),[6]; [10],LAC1
same,HT-XRPD Vac.,[6]; [10],LAC1
same,HT-XRPD Vac. (AAC),[6]; [10],LAC1
same,HT-XRPD Vac.,[6]; thermocycling in IPA,LAC1
same,HT-XRPD Vac. (AAC),[6]; thermocycling in IPA,LAC1
same,HT-XRPD Vac.,[6]; [11],LAC1
same,HT-XRPD Vac. (AAC),[6]; [11],LAC1
same,HT-XRPD Vac.,[6]; thermocycling in MEK,LAC1
same,HT-XRPD Vac. (AAC),[6]; thermocycling in MEK,LAC1
same,HT-XRPD Evap.,[6]; thermocycling in MeOH,Oil
same,HT-XRPD Evap. (AAC),[6]; thermocycling in MeOH,Oil
same,HT-XRPD Vac.,[6]; thermocycling in TBME,LAC1
same,HT-XRPD Vac. (AAC),[6]; thermocycling in TBME,LAC1
same,HT-XRPD Vac.,[6]; thermocycling in THF,LAC1
same,HT-XRPD Vac. (AAC),[6]; thermocycling in THF,LAC1
same,HT-XRPD Evap.,[6]; thermocycling in Water,LAC1
same,HT-XRPD Evap. (AAC),[6]; thermocycling in Water,LAC1
same,HT-XRPD Vac.,[6]; thermocycling in Water,ly
same,HT-XRPD Vac. (AAC),[6]; thermocycling in Water,ly
same,UPLC t0,[7]; chemical purity at start of stability study,99.4%
same,UPLC 1 week,[7]; [12],99.4%
same,UPLC 3 weeks,[7]; [12],99.4%
same,UPLC 3 days,[7]; [12],99.4%
same,UPLC 1 week,[7]; [13],99.2%
same,UPLC 3 weeks,[7]; [13],99.4%
same,UPLC 3 days,[7]; [13],99.4%
same,physical and chemical stability,[7]; incubation for 3 weeks at 25° C./60% RH and 40° C./75% RH,physically and chemically stable
same,TGMS 1 week,[7]; [12],<0.1% water
same,XRPD 1 week,[7]; [12],LAC1
same,TGMS 3 weeks,[7]; [12],<0.1% water
same,XRPD 3 weeks,[7]; [12],LAC1
same,TGMS 3 days,[7]; [12],1.2% water
same,XRPD 3 days,[7]; [12],LAC1
same,TGMS 1 week,[7]; [13],0.2% water
same,XRPD 1 week,[7]; [13],LAC1
same,TGMS 3 weeks,[7]; [13],<0.1% water
same,XRPD 3 weeks,[7]; [13],LAC1
same,TGMS 3 days,[7]; [13],1.5% water
same,XRPD 3 days,[7]; [13],LAC1
same,TGMS t0,[7]; start of stability study,0.4% water
same,XRPD t0,[7]; start of stability study,LAC1
same,solubility compared with the TFA salts,[8]; overall conclusion of Example 3,significantly higher solubility
same,XRPD 1 h Amb.,"[8]; residual solid after 1 h in water at 37° C., ambient-dried",LAC1
same,XRPD 1 h Vac.,"[8]; residual solid after 1 h in water at 37° C., vacuum-dried",LAC1
same,XRPD 18 h Amb.,"[8]; residual solid after 18 h in water at 37° C., ambient-dried",Am
same,XRPD 18 h Vac.,"[8]; residual solid after 18 h in water at 37° C., vacuum-dried",LAC1
same,pH after 10 min,[8]; [14],5.9
same,pH after 1 h,[8]; [14],5.8
same,pH after 18 h,[8]; [14],5.8
same,Solubility (mg/mL) 1 h,"[8]; water, 37° C., 1 h (kinetic), UPLC",24.3 mg/mL
same,Solubility (mg/mL) 18 h,"[8]; water, 37° C., 18 h (thermodynamic), UPLC",23.6 mg/mL
